Common to all, as to type: cell-based
Test [1] relates to Ba/F3 cells expressing del19/T790M (EGFR-DT). Put plainly: Growth inhibition (GI50) of Ba/F3 cells expressing del19/T790M (EGFR-DT), Celltiter glo. To be noted: Mus musculus, BaF3, 72 h. Put shortly:
(§1)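 Antiproliferative activity was assessed in EGFR-mutant or wild-type Ba/F3 cells over 72 h at 37 °C with 5% CO2. Cell viability was determined by CellTiter-Glo, and GI50 taken as the compound concentration inhibiting growth by 50%.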

The test system of test [2] is Ba/F3 cells expressing L858R/T790M/C797S (EGFR-LTC). Put plainly: Growth inhibition (GI50) of Ba/F3 cells expressing L858R/T790M/C797S (EGFR-LTC), Celltiter glo. The conditions noted are these: Mus musculus, BaF3, 72 h. Put shortly:
as §1

In test [3] the test system is parental Ba/F3 cell line. Put plainly: Growth inhibition (GI50) of the parental Ba/F3 cell line (not introduced with EGFR variants), Celltiter glo. The conditions noted are these: Mus musculus, BaF3, 72 h, parental Ba/F3 cells. The method in brief: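 Viable cell count by CellTiter-Glo after 72 h at 37 °C gave GI50 values (μM, 50% growth inhibition). Cells lacking EGFR variants were seeded at 100,000 cells/ml and dosed 4 h later with 4-fold serial dilutions from a 2 mM stock, 0.5% DMSO.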

The subject of test [4] is Ba/F3 cells expressing EGFR-wt. Put plainly: Growth inhibition (GI50) of Ba/F3 cells expressing EGFR-wt, Celltiter glo. The conditions noted are these: Mus musculus, BaF3, 72 h. The method in brief:
as §1

Test [5] has as its system Ba/F3 cells expressing del19/T790M/C797S (EGFR-DTC). The test can be described thus: Growth inhibition (GI50) of Ba/F3 cells expressing del19/T790M/C797S (EGFR-DTC), Celltiter glo. To be noted: Mus musculus, BaF3, 72 h. Put shortly:
as §1

The test system of test [6] is Ba/F3 cells expressing L858R/T790M (EGFR-LT). Put plainly: Growth inhibition (GI50) of Ba/F3 cells expressing L858R/T790M (EGFR-LT), Celltiter glo. To be noted: Mus musculus, BaF3, 72 h. The method in brief:
as §1

Among the data in US20240228458A1, “PYRIMIDINE DERIVATIVE HAVING PROTEIN KINASE INHIBITORY ACTIVITY, AND THERAPEUTIC PHARMACEUTICAL COMPOSITION COMPRISING SAME” (THERAPEX CO., LTD., priority 2021, published 2024) are GI50 values, retold here.

A value given as a limit tells only on which side of the number the result lay.

On to `Cc1cc(Nc2ncc(Cl)c(Nc3cc4c(cc3NS(C)(=O)=O)CCO4)n2)c(Cl)cc1N1CCC(N2CCN(C)CC2)CC1` [Example 173, N-(6-((5-chloro-2-((2-chloro-5-methyl-4-(4-(4-methylpiperazin-1-yl)piperidin-1-yl)phenyl)amino)pyrimidin-4-yl)amino)-2,3-dihydrobenzofuran-5-yl)methanesulfonamide], for which the GI50 lay in the range of 0.001 to 0.025 µM in test [1]; 0.025 to 0.1 µM in test [2]; 0.1 to 0.5 µM in test [3]; 0.1 to 0.5 µM in test [4]; 0.025 to 0.1 µM in test [5]; 0.001 to 0.025 µM in test [6].

With `COc1cc(N2CCC(N3CCCN(C)CC3)CC2)c(Cl)cc1Nc1ncc(Cl)c(Nc2cc3c(cc2NS(C)(=O)=O)CCO3)n1` [Example 174, N-(6-((5-chloro-2-((5-chloro-2-methoxy-4-(4-(4-methyl-1,4-diazepan-1-yl)piperidin-1-yl)phenyl)amino)pyrimidin-4-yl)amino)-2,3-dihydrobenzofuran-5-yl)methanesulfonamide], the GI50 lay in the range of 0.001 to 0.025 µM in test [1]; 0.025 to 0.1 µM in test [2]; 0.5 to 2 µM in test [3]; 0.1 to 0.5 µM in test [4]; 0.001 to 0.025 µM in test [5]; 0.001 to 0.025 µM in test [6].

Regarding `Cc1cc(Nc2ncc(Br)c(Nc3cc4c(cc3NS(C)(=O)=O)CCO4)n2)c(Cl)cc1N1CCC(N2CCN(C)CC2)CC1` [Example 175, N-(6-((5-bromo-2-((2-chloro-5-methyl-4-(4-(4-methylpiperazin-1-yl)piperidin-1-yl)phenyl)amino)pyrimidin-4-yl)amino)-2,3-dihydrobenzofuran-5-yl)methanesulfonamide], the GI50 in test [1] was 0.1 to 0.5 µM; in test [2] it was 0.025 to 0.1 µM; in test [3], over 10 µM; in test [4], 0.5 to 2 µM; in test [5], 0.025 to 0.1 µM; in test [6], 0.1 to 0.5 µM.

Turning to `COc1cc(N2CCC(N3CCN(C)CC3)CC2)c(C)cc1Nc1ncc(Cl)c(Nc2cc(Cl)c(F)cc2NS(C)(=O)=O)n1` [Example 176, N-(4-chloro-2-((5-chloro-2-((2-methoxy-5-methyl-4-(4-(4-methylpiperazin-1-yl)piperidin-1-yl)phenyl)amino)pyrimidin-4-yl)amino)-5-fluorophenyl)methanesulfonamide], the GI50 in test [1] lay within 0.025 to 0.1 µM; in test [2] it was 0.001 to 0.025 µM; in test [3], 0.5 to 2 µM; in test [4], 0.1 to 0.5 µM; in test [5], 0.001 to 0.025 µM; in test [6], 0.025 to 0.1 µM.

`Cc1cc(Nc2ncc(Br)c(Nc3cc(Cl)c(F)cc3NS(C)(=O)=O)n2)c(Cl)cc1N1CCC(N2CCN(C)CC2)CC1` [Example 177, N-(2-((5-bromo-2-((2-chloro-5-methyl-4-(4-(4-methylpiperazin-1-yl)piperidin-1-yl)phenyl)amino)pyrimidin-4-yl)amino)-4-chloro-5-fluorophenyl)methanesulfonamide]: the GI50 in test [1] is 0.1 to 0.5 µM; in test [2], 0.001 to 0.025 µM; in test [3] it was 2 to 10 µM; in test [4], 2 to 10 µM; in test [5] it was 0.025 to 0.1 µM; in test [6], 0.1 to 0.5 µM.

For `COc1cc(N2CCC(N3CCN(C)CC3)CC2)c(Cl)cc1Nc1ncc(Br)c(Nc2cc(Cl)c(F)cc2NS(C)(=O)=O)n1` [Example 178, N-(2-((5-bromo-2-((5-chloro-2-methoxy-4-(4-(4-methylpiperazin-1-yl)piperidin-1-yl)phenyl)amino)pyrimidin-4-yl)amino)-4-chloro-5-fluorophenyl)methanesulfonamide], the GI50 is 0.025 to 0.1 µM in test [1]; 0.025 to 0.1 µM in test [2]; 2 to 10 µM in test [3]; 0.5 to 2 µM in test [4]; 0.001 to 0.025 µM in test [5]; 0.025 to 0.1 µM in test [6].
